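Five concentrations, 48 hours, 96-well plates. GI50 marks 50% less growth.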 The source made the active and inactive calls. Cut-off read from the data, not from the text of the source: active = GI50 up to about 1.1 µM and inactive = higher.
Assays:
Test in all cases: NCI tumour cell line growth inhibition, 48 h
[1] = system: CAKI-1
[2] = system: EKVX
[3] = system: HCT-15
[4] = system: HL-60
[5] = system: HOP-62
[6] = system: MOLT-4
[7] = system: NCI-H226
[8] = system: NCI-H23
[9] = system: NCI-H460
[10] = system: OVCAR-4
[11] = system: OVCAR-5
[12] = system: RXF 393
[13] = system: SF-268
[14] = system: SF-295
[15] = system: SF-539
[16] = system: U-251
[17] = system: UACC-62
[18] = system: KM12
[19] = system: SK-MEL-28
[20] = system: HOP-92

| Structure (SMILES) | GI50 [1] | GI50 [2] | GI50 [3] [µM] | GI50 [4] | GI50 [5] | GI50 [6] | GI50 [7] | GI50 [8] | GI50 [9] | GI50 [10] | GI50 [11] | GI50 [12] | GI50 [13] | GI50 [14] | GI50 [15] | GI50 [16] | GI50 [17] | GI50 [18] | GI50 [19] | GI50 [20] |
| --- | --- | --- | --- | --- | --- | --- | --- | --- | --- | --- | --- | --- | --- | --- | --- | --- | --- | --- | --- | --- |
| COc1ccc(C(=O)Cc2ccc(Br)cc2)cc1OC | > 100 µM (inactive) | > 100 µM (inactive) | > 100 | > 100 µM (inactive) | 79.1 µM (inactive) | > 100 µM (inactive) | > 100 µM (inactive) | > 100 µM (inactive) | > 100 µM (inactive) | > 100 µM (inactive) | > 100 µM (inactive) | 72.8 µM (inactive) | > 100 µM (inactive) | 40 µM (inactive) | > 100 µM (inactive) | > 100 µM (inactive) | > 100 µM (inactive) |  |  |  |
| S=c1sc2c(s1)SCCCCSCCCCSc1sc(=S)sc1SCCCCSCCCCS2 | > 100 µM (inactive) | > 100 µM (inactive) | > 100 | > 100 µM (inactive) | > 100 µM (inactive) | > 100 µM (inactive) | > 100 µM (inactive) | > 100 µM (inactive) | > 100 µM (inactive) |  | > 100 µM (inactive) |  | 93.1 µM (inactive) | > 100 µM (inactive) | > 100 µM (inactive) | > 100 µM (inactive) | > 100 µM (inactive) | > 100 µM (inactive) | > 100 µM (inactive) |  |
| Cc1ccc2c(=O)c3ccccc3sc2c1 | 45.4 µM (inactive) | 55.2 µM (inactive) |  | 26.9 µM (inactive) | > 100 µM (inactive) | 72.8 µM (inactive) | > 100 µM (inactive) | > 100 µM (inactive) | > 100 µM (inactive) | > 100 µM (inactive) | > 100 µM (inactive) | > 100 µM (inactive) | > 100 µM (inactive) |  | > 100 µM (inactive) | > 100 µM (inactive) | > 100 µM (inactive) | 53.7 µM (inactive) | > 100 µM (inactive) |  |
| COc1ccc(-c2c3ccccc3c(-c3ccc(OCCCCCBr)cc3)c3ccccc23)cc1 | > 100 µM (inactive) | > 100 µM (inactive) | > 100 | > 100 µM (inactive) | > 100 µM (inactive) | > 100 µM (inactive) | > 100 µM (inactive) |  | > 100 µM (inactive) | > 100 µM (inactive) | > 100 µM (inactive) |  | > 100 µM (inactive) | > 100 µM (inactive) | > 100 µM (inactive) |  | > 100 µM (inactive) | > 100 µM (inactive) | > 100 µM (inactive) | > 100 µM (inactive) |
| CCC1(C)C=Cc2c(cc(O)c3c(=O)c4ccccc4n(C)c23)O1 (stereo not given) | 3.26 µM (inactive) | > 10 µM (inactive) | > 10 |  | > 10 µM (inactive) | > 10 µM (inactive) | > 10 µM (inactive) | > 10 µM (inactive) | > 10 µM (inactive) | > 10 µM (inactive) | > 10 µM (inactive) | > 10 µM (inactive) | > 10 µM (inactive) | > 10 µM (inactive) | > 10 µM (inactive) | > 10 µM (inactive) | > 10 µM (inactive) | > 10 µM (inactive) | > 10 µM (inactive) | > 10 µM (inactive) |
| C=CCN1C[C@H](C)N([C@H](c2ccc(C(=O)N(CC)CC)cc2)c2cccc(OC)c2)C[C@H]1C [SNC-80] | > 100 µM (inactive) | > 100 µM (inactive) | 70.3 | 24.8 µM (inactive) | 74.1 µM (inactive) | 27.9 µM (inactive) | 21.4 µM (inactive) | 32.7 µM (inactive) |  | 73.8 µM (inactive) | > 100 µM (inactive) |  | 86.5 µM (inactive) | 19.9 µM (inactive) | 51.5 µM (inactive) | 44.9 µM (inactive) | 34.1 µM (inactive) | 50.8 µM (inactive) | 69.3 µM (inactive) | 5.11 µM (inactive) |
